# Laboratory results: ChEMBL document CHEMBL1122681, “(Acylaryloxy)acetic acid diuretics. 5. [(2-Alkyl- and 2,2-disubstituted-1,3-dioxo-5-indanyl)oxy]acetic acids” (J Med Chem, 1984)
# Columns and labels:
# Rattus norvegicus [1] = test: Compound was evaluated for diuretic activity administered orally in female rats measured as milliequivalents of Na+x 100 / cage at 27 mg/kg; type: functional, Urine; settings: route oral
# Rattus norvegicus [2] = test: Compound was evaluated for diuretic activity administered orally in female rats measured as milliequivalents of K+x 100 / cage at 27 mg/kg; type: functional, Urine; settings: route oral
# [3] = volume of urine at 3 mg/kg; type: ADME, organism-based; set-up: dose 3 mg/kg; settings: in vivo
# Pan troglodytes [4] = test: Compound was evaluated for diuretic activity in chimpanzee measured as increase in volume of urine at 0.125 mg/kg; type: functional
# [5] = volume of urine at 9 mg/kg; type: ADME, organism-based; set-up: dose 9 mg/kg; settings: in vivo
# [6] = volume of urine at 81 mg/kg; type: ADME, organism-based; set-up: dose 81 mg/kg; settings: in vivo
# Canis familiaris [7] = test: Compound was evaluated for diuretic activity, in female mongrel dogs by measuring amount of Cl- in urine after iv administration of 5 mg/kg (control/compound treatment results) Control = 8; type: functional, Canis lupus familiaris
# Rattus norvegicus [8] = test: Compound was evaluated for diuretic activity administered orally in female rats measured as milliequivalents of Na+x 100 / cage at 81 mg/kg; type: functional, Urine; settings: route oral
# Rattus norvegicus [9] = test: Compound was evaluated for diuretic activity administered orally in female rats measured as milliequivalents of K+x 100 / cage at 9 mg/kg; type: functional, Urine; settings: route oral
# Rattus norvegicus [10] = test: Compound was evaluated for diuretic activity administered orally in female rats measured as milliequivalents of Na+x 100 / cage at 3 mg/kg; type: functional, Urine; settings: route oral
# Rattus norvegicus [11] = test: Compound was evaluated for diuretic activity administered orally in female rats measured as milliequivalents of Na+x 100 / cage at 9 mg/kg; type: functional, Urine; settings: route oral
# Pan troglodytes [12] = test: Compound was evaluated for diuretic activity in chimpanzee measured as increase in the number of microequivalents of K+ /min at 5 mg/kg; type: functional, Urine
# Pan troglodytes [13] = test: Compound was evaluated for diuretic activity in chimpanzee measured as increase in the number of microequivalents of Cl- electrolyte/min at 5 mg/kg; type: functional, Urine
# Canis familiaris [14] = test: Compound was evaluated for diuretic activity, in female mongrel dogs by measuring amount of Na+ in urine after iv administration of 5 mg/kg (control/compound treatment results) Control = 42; type: functional, Canis lupus familiaris
# Pan troglodytes [15] = test: Compound was evaluated for diuretic activity in chimpanzee measured as increase in the number of microequivalents of cl- /min at 1.25 mg/kg; type: functional, Urine
# Pan troglodytes [16] = test: Compound was evaluated for diuretic activity in chimpanzee measured as increase in the number of microequivalents of K+ /min at 1.25 mg/kg; type: functional, Urine
# Rattus norvegicus [17] = test: Compound was evaluated for diuretic activity administered orally in female rats measured as milliequivalents of Cl-+x 100 / cage at 27 mg/kg; type: functional, Urine; settings: route oral
# Rattus norvegicus [18] = test: Compound was evaluated for diuretic activity administered orally in female rats measured as milliequivalents of Cl-x 100 / cage at 81 mg/kg; type: functional, Urine; settings: route oral
# Rattus norvegicus [19] = test: Compound was evaluated for diuretic activity administered orally in female rats measured as milliequivalents of K+x 100 / cage at 3 mg/kg; type: functional, Urine; settings: route oral
# Pan troglodytes [20] = test: Compound was evaluated for diuretic activity in chimpanzee measured as clearance of […] and urate after intra venous administration of 1.25 mg/kg.; type: functional, Urine
# Pan troglodytes [21] = test: Compound was evaluated for diuretic activity in chimpanzee measured as increase in the number of microequivalents of Na+ /min at 1.25 mg/kg; type: functional, Urine
# Rattus norvegicus [22] = test: Compound was evaluated for diuretic activity administered orally in female rats measured as milliequivalents of Cl-x 100 / cage at 9 mg/kg; type: functional, Urine; settings: route oral
# Pan troglodytes [23] = test: Compound was evaluated for diuretic activity in chimpanzee measured as clearance of […] and urate after peroral administration of 5 mg/kg; type: functional, Urine; settings: route oral
# Pan troglodytes [24] = test: Compound was evaluated for diuretic activity in chimpanzee measured as increase in the number of microequivalents of Na+ /min at 5 mg/kg; type: functional, Urine
# Canis familiaris [25] = test: Compound was evaluated for diuretic activity, in female mongrel dogs by measuring amount of K+ in urine after iv administration of 5 mg/kg (control/compound treatment results) Control = 5; type: functional, Canis lupus familiaris
# Pan troglodytes [26] = test: Compound was evaluated for diuretic activity in chimpanzee measured as increase in volume of urine at 1 mg/kg; type: functional
# Rattus norvegicus [27] = test: Compound was evaluated for diuretic activity administered orally in female rats measured as milliequivalents of Cl-x 100 / cage at 3 mg/kg; type: functional, Urine; settings: route oral
# Canis familiaris [28] = test: Compound was evaluated for diuretic activity, in female mongrel dogs by measuring volume of urine, after iv administration of 5 mg/kg (control/compound treatment results) Control = 1; type: ADME, organism-based, Canis lupus familiaris; set-up: dose 5 mg/kg, route intravenous; settings: dog, in vivo
# Rattus norvegicus [29] = test: Compound was evaluated for diuretic activity administered orally in female rats measured as milliequivalents of K+x 100 / cage at 81 mg/kg; type: functional, Urine; settings: route oral
# [30] = volume of urine at 27 mg/kg; type: ADME, organism-based; set-up: dose 27 mg/kg; settings: in vivo
# Pan troglodytes [31] = test: Compound was evaluated for diuretic activity in chimpanzee measured as increase in volume of urine at 1.25 mg/kg; type: functional
# Canis familiaris [32] = test: Compound was evaluated for diuretic activity, in female mongrel dogs by measuring amount of Cl- in urine after iv administration of 5 mg/kg (control/compound treatment results) Control = 4; type: functional, Canis lupus familiaris
# Canis familiaris [33] = test: Compound was evaluated for diuretic activity, in female mongrel dogs by measuring amount of K+ in urine after iv administration of 5 mg/kg (control/compound treatment results) Control = 10; type: functional, Canis lupus familiaris
# Canis familiaris [34] = test: Compound was evaluated for diuretic activity, in female mongrel dogs by measuring amount of Na+ in urine after iv administration of 5 mg/kg (control/compound treatment results) Control = 22; type: functional, Canis lupus familiaris
# Pan troglodytes [35] = test: Compound was evaluated for diuretic activity in chimpanzee measured as increase in the number of microequivalents of Cl- electrolyte/min at 1.25 mg/kg; type: functional, Urine
# Pan troglodytes [36] = test: Compound was evaluated for diuretic activity in chimpanzee measured as increase in volume of urine at 5 mg/kg; type: functional
# Pan troglodytes [37] = test: Compound was evaluated for diuretic activity in chimpanzee measured as clearance of […] and urate after intravenous administration of 1.25 mg/kg; type: functional, Urine
# Pan troglodytes [38] = test: Compound was evaluated for diuretic activity in chimpanzee measured as increase in the number of microequivalents of Cl- electrolyte/min at 1 mg/kg; type: functional, Urine
# Pan troglodytes [39] = test: Compound was evaluated for diuretic activity in chimpanzee measured as increase in the number of microequivalents of Cl- /min at 5 mg/kg; type: functional, Urine
# Canis familiaris [40] = test: Compound was evaluated for diuretic activity, in female mongrel dogs by measuring amount of K+ in urine after iv administration of 5 mg/kg (control/compound treatment results) Control = 13; type: functional, Canis lupus familiaris
# Canis familiaris [41] = test: Compound was evaluated for diuretic activity, in female mongrel dogs by measuring volume of urine, after iv administration of 5 mg/kg (control/compound treatment results) Control = 2; type: ADME, organism-based, Canis lupus familiaris; set-up: dose 5 mg/kg, route intravenous; settings: dog, in vivo
# Pan troglodytes [42] = test: Compound was evaluated for diuretic activity in chimpanzee measured as clearance of […] and urate after intra venous administration of 5 mg/kg.; type: functional, Urine
# Pan troglodytes [43] = test: Compound was evaluated for diuretic activity in chimpanzee measured as increase in the number of microequivalents of K+ /min at 1 mg/kg; type: functional, Urine
# Canis familiaris [44] = test: Compound was evaluated for diuretic activity, in female mongrel dogs by measuring amount of Na+ in urine after iv administration of 5 mg/kg (control/compound treatment results) Control = 59; type: functional, Canis lupus familiaris
# Pan troglodytes [45] = test: Compound was evaluated for diuretic activity in chimpanzee measured as increase in the number of microequivalents of Na+ /min at 1 mg/kg; type: functional, Urine
# Canis familiaris [46] = test: Compound was evaluated for diuretic activity, in female mongrel dogs by measuring amount of Cl- in urine after iv administration of 5 mg/kg (control/compound treatment results) Control = 5; type: functional, Canis lupus familiaris
smiles,measurement,setting,value
CCC1(C)C(=O)c2cc(OCC(=O)O)c(Cl)c(Cl)c2C1=O (stereo not drawn),Activity,Rattus norvegicus [1],101
same,Activity,Rattus norvegicus [2],43
same,Urine volume,[3],30 mL
same,Increase in volume,Pan troglodytes [4],1.4 mL/min
same,Urine volume,[5],29 mL
same,Urine volume,[6],31 mL
same,Activity,Canis familiaris [7],179 u equiv min-1
same,Activity,Rattus norvegicus [8],164
same,Activity,Rattus norvegicus [9],35
same,Activity,Rattus norvegicus [10],50
same,Activity,Rattus norvegicus [11],80
same,Increase,Pan troglodytes [12],30
same,Increase,Pan troglodytes [13],226
same,Activity,Canis familiaris [14],247 u equiv min-1
same,Increase,Pan troglodytes [15],267
same,Increase,Pan troglodytes [16],41
same,Activity,Rattus norvegicus [17],130
same,Activity,Rattus norvegicus [18],250
same,Activity,Rattus norvegicus [19],46
same,Delta C urate / delta C insulin,Pan troglodytes [20],0.43
same,Increase,Pan troglodytes [21],187
same,Activity,Rattus norvegicus [22],97
same,Delta C urate / delta C insulin,Pan troglodytes [23],0.007
same,Increase,Pan troglodytes [24],217
same,Activity,Canis familiaris [25],7 u equiv min-1
same,Increase in volume,Pan troglodytes [26],2 mL/min
same,Activity,Rattus norvegicus [27],64
same,Urine volume,Canis familiaris [28],2 mL/min
same,Activity,Rattus norvegicus [29],89
same,Urine volume,[30],27 mL
CCC1(CC)C(=O)c2cc(OCC(=O)O)c(C)c(C)c2C1=O,Increase in volume,Pan troglodytes [31],2.2 mL/min
same,Activity,Canis familiaris [32],42 u equiv min-1
same,Increase,Pan troglodytes [12],32
same,Increase,Pan troglodytes [13],120
same,Increase,Pan troglodytes [16],46
same,Activity,Canis familiaris [33],21 u equiv min-1
same,Activity,Canis familiaris [34],106 u equiv min-1
same,Increase,Pan troglodytes [35],288
same,Increase in volume,Pan troglodytes [36],0.6 mL/min
same,Increase,Pan troglodytes [21],243
same,Delta C urate / delta C insulin,Pan troglodytes [37],0.258
same,Delta C urate / delta C insulin,Pan troglodytes [23],0.045
same,Increase,Pan troglodytes [24],103
same,Urine volume,Canis familiaris [28],2 mL/min
Cc1c(OCc2nn[nH]n2)cc2c(c1Cl)C(=O)C1(CCCC1)C2=O,Increase,Pan troglodytes [38],172
same,Increase,Pan troglodytes [39],36
same,Activity,Canis familiaris [40],27 u equiv min-1
same,Urine volume,Canis familiaris [41],3 mL/min
same,Delta C urate / delta C insulin,Pan troglodytes [42],0.128
same,Increase,Pan troglodytes [12],2
same,Increase,Pan troglodytes [43],55
same,Activity,Canis familiaris [44],193 u equiv min-1
same,Increase in volume,Pan troglodytes [36],0 mL/min
same,Increase,Pan troglodytes [45],119
same,Delta C urate / delta C insulin,Pan troglodytes [23],0.026
same,Activity,Canis familiaris [46],11 u equiv min-1
same,Increase,Pan troglodytes [24],5
same,Increase in volume,Pan troglodytes [26],0.6 mL/min
